Assay results: BindingDB's records for doi:10.1007/bf00178951 (Sandoz Pharma, 1994)

Molecular target: G_PROTEIN_RECEP_F1_2 domain-containing protein (Sus scrofa, UniProt I3LCE8)
Sequence (I3LCE8 whole entry): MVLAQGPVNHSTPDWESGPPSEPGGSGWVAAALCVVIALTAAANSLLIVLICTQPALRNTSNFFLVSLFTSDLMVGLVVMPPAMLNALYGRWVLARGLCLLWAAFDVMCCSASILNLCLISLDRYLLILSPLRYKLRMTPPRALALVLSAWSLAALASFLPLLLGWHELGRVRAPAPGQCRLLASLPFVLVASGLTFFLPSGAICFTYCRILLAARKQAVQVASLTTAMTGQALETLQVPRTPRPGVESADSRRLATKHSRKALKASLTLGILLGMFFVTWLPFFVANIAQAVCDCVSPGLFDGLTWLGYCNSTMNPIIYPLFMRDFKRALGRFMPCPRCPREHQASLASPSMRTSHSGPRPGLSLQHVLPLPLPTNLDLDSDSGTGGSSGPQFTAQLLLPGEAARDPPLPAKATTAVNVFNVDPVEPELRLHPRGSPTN

Ki: > 10 µM
Structure (SMILES): O=C(c1ccc(F)cc1)C1CCN(CCn2c(=O)[nH]c3ccccc3c2=O)CC1 [3-(2-{4-[(4-fluorophenyl)carbonyl]piperidin-1-yl}ethyl)-1,2,3,4-tetrahydroquinazoline-2,4-dione]
